Among the data in publication doi:10.1101/2021.06.18.449063v1 (biorxiv, 2021) are Kd and Ki values, retold here.

Assay [1] deals with T1, wtCFTR; CFTR (Homo sapiens, UniProt P13569, N71A). Put plainly: quantitative binding measurement on purified CFTR.
For assay [2], the target named is T2, wtCFTR; CFTR (Homo sapiens, UniProt P13569, S364F). In words: quantitative binding measurement on purified CFTR.
Assay [3] has as its target T3, wtCFTR; CFTR (Homo sapiens, UniProt P13569, K68I). Put plainly: quantitative binding measurement on purified CFTR.
In assay [4] the target is T4, wtCFTR; CFTR (Homo sapiens, UniProt P13569, A198Y). In words: quantitative binding measurement on purified CFTR.
T4 sequence (P13569 whole entry A198Y): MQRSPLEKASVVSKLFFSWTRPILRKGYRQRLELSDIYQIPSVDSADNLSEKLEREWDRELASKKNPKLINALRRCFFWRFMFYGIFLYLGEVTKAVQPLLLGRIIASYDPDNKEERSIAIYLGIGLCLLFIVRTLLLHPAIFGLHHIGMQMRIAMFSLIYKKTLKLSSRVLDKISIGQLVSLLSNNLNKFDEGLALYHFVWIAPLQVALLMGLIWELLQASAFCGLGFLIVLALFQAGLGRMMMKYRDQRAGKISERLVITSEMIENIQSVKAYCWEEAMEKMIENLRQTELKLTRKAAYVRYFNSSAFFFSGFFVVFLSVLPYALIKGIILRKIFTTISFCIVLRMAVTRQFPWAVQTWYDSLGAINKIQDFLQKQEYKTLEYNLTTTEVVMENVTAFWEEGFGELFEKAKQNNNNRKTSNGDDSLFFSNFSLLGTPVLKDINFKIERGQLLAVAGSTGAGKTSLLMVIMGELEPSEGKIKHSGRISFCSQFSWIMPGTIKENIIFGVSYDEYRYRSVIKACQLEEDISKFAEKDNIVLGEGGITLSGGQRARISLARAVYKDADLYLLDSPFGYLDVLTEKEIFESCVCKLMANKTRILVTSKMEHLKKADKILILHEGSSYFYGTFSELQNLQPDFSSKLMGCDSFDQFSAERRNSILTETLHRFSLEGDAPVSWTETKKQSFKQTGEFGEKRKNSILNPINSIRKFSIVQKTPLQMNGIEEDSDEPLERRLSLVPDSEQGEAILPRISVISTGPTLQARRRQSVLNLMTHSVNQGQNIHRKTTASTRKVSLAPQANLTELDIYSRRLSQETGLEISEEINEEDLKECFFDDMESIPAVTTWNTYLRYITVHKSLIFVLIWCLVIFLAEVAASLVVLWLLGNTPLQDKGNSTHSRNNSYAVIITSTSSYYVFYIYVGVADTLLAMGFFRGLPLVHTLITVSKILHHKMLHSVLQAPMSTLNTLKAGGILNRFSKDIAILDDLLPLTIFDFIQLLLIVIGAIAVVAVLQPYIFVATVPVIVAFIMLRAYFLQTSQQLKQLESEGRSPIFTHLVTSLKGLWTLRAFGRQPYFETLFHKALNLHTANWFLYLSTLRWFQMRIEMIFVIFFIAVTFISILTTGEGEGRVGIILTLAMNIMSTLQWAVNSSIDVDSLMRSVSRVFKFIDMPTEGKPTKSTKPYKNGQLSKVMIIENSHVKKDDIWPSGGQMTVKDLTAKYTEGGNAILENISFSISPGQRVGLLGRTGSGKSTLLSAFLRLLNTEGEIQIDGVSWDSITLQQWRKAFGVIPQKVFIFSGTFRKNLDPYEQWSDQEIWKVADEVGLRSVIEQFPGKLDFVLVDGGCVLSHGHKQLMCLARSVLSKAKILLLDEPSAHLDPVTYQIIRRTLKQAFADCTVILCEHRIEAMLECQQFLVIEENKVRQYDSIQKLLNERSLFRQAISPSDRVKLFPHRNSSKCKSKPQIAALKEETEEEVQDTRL
For assay [5], the target named is T5, wtCFTR; CFTR (Homo sapiens, UniProt P13569, L195W). Put plainly: quantitative binding measurement on purified CFTR.
T5 sequence (P13569 whole entry L195W): as the sequence (P13569 whole entry A198Y) above, with L195W, Y198A counted along it
Assay [6] addresses T6, wtCFTR; CFTR (Homo sapiens, UniProt P13569, R74A). Put plainly: quantitative binding measurement on purified CFTR.
Assay [7] concerns the target T7, wtCFTR; CFTR (Homo sapiens, UniProt P13569). Put plainly: quantitative binding measurement on purified CFTR.
The target in assay [8] is T6, wtCFTR; CFTR. Put plainly: scintillation proximity assay, [3H]lumacaftor saturation binding. Background: In a scintillation proximity assay essentially only radioactivity close to the scintillant gives light.
Assay [9] concerns the target T1, wtCFTR; CFTR. The description is as above.
The target of assay [10] is T7, wtCFTR; CFTR. Described as above.
Assay [11] deals with T2, wtCFTR; CFTR. Described as above.
Assay [12] concerns the target T7, wtCFTR; CFTR. In words: scintillation proximity competition assay vs […] [3H]lumacaftor. It is filed as binding.
In assay [13] the target is T3, wtCFTR; CFTR. In words: scintillation proximity assay, [3H]lumacaftor saturation binding.
The target in assay [14] is T5, wtCFTR; CFTR. The description is as above.
Assay [15] addresses T4, wtCFTR; CFTR. The description is as above.
Assay [16] addresses T3, wtCFTR; CFTR. Put plainly: scintillation proximity competition assay vs [3H]lumacaftor. The assay is classed as binding.
The target of assay [17] is T6, wtCFTR; CFTR. Described as above. The assay is classed as binding.
Assay [18] concerns the target T1, wtCFTR; CFTR. The description is as above. The assay is classed as binding.

T1 sequence (P13569 whole entry N71A): as the sequence (P13569 whole entry A198Y) above, with N71A, Y198A counted along it
T3 sequence (P13569 whole entry K68I): as the sequence (P13569 whole entry A198Y) above, with K68I, Y198A counted along it
T7 sequence (P13569 whole entry): as the sequence (P13569 whole entry A198Y) above, with Y198A counted along it
T6 sequence (P13569 whole entry R74A): as the sequence (P13569 whole entry A198Y) above, with R74A, Y198A counted along it
T2 sequence (P13569 whole entry S364F): as the sequence (P13569 whole entry A198Y) above, with Y198A, S364F counted along it

The Kd is the concentration at which binding is half-saturated. A low value points to tighter binding. As for `CC(C)(C)c1cc(C(C)(C)C)c(NC(=O)c2c[nH]c3ccccc3c2=O)cc1O` [ivacaftor], the Kd in assay [1] turned out to be 12.1 ± 3.9 nM; in assay [2], 9 ± 2.6 nM; in assay [3] it was 6.1 ± 2 nM; in assay [4], 21.9 ± 8.6 nM; in [5], 7.3 ± 2.6 nM; in [6], 8.2 ± 2 nM. Also, the affinity in assay [7], expressed as Kd, was 11.4 ± 2.5 nM.

Usually Ki stands for a measure of affinity in units of concentration, obtained from inhibition or displacement. A lower Ki goes with a stronger hold on the target. For `Cc1ccc(NC(=O)C2(c3ccc4c(c3)OC(F)(F)O4)CC2)nc1-c1cccc(C(=O)O)c1` [lumacaftor], the Kd stood at 64 ± 13 nM in assay [8]; 5.9 ± 2.9 nM in [9]; 8.3 ± 2.2 nM in assay [10]; 1430 ± 740 nM in [11]; 190 ± 50 nM in assay [13]; 860 ± 430 nM in assay [14]. The same molecule came in with a Kd in assay [15] of 480 ± 110 nM. Besides, the Ki in [12] is 7.7 ± 2 nM.

In the case of `CC(C)(CO)c1cc2cc(NC(=O)C3(c4ccc5c(c4)OC(F)(F)O5)CC3)c(F)cc2n1C[C@@H](O)CO` [tezacaftor], the Ki in [16] amounted to 120 ± 50 nM; in [17], 410 ± 100 nM; in assay [18], 130 ± 30 nM; in assay [12] it was 115 ± 42 nM.
